Measured values from patent publication US10227347B2, “Purinyl-N-hydroxyl pyrimidine formamide derivative, preparation methods and uses thereof” (Guizhou Bailing Group Pharmaceutical CO., LTD., priority 2015, dated 2019).
Like-named read-outs stand apart in the source and are kept apart here.

Key:
[1] = target: T1, HDAC1 (Homo sapiens, UniProt Q13547); test: In vitro HDAC1 enzymatic activity inhibition (Lys-Ac-AMC substrate); assay type: biochemical
T1 construct: purchased BPS Bioscience
Experimental: Determining the inhibition capability to HDAC activity through the substrate method of fluorophore 4-amino-7-coumarin coupled Ac-peptide (Lys-Ac-AMC). HDAC1 protein is purchased from BPS Bioscience Company; the reaction buffer system is a modified tris(hydroxymethyl)aminomethane (TRIS) buffer (pH7.0). All small molecule compounds are prepared and dissolved by 100% DMSO (dimethyl sulfoxide). HDAC is prepared into the buffer as per certain concentration to be served as the enzyme solution; trypsin and the fluorophore 4-amino-7-coumarin coupled Ac-peptide substrate are prepared into the buffer as per certain concentration to be served as the substrate solution. Adding the compound into the reaction wells of the 384 well plate at the designed concentration, then adding 15 μL HDAC solution into the reaction wells (adding 15 μL blank buffer into the control well 0) for incubation under ambient temperature for 15 min; then adding 10 μL substrate solution to start reaction; during the reaction, the final concentration of HDAC1 protein is 6 nM, trypsin 0.05 μM and Ac-peptide 8 μM.
(§1) Calculating the value of IC50 as per the formula: Y=background data+(top data−background data)/(1+10^((Log IC50−X)*rate of curve))
Where, Y refers to the inhibition ratio (%) and X refers to the compound concentration. […]
Analyzing the result data with the software GraphPad Prism and calculating the value of IC50 as per the formula: Y=background data+(top data−background data)/(1+10^((Log IC50−X)*rate of curve)). Where, Y refers to the inhibition ratio (%) and X refers to the compound concentration.

[2] = target: T2, PI3Kα (Homo sapiens, UniProt P42336); test: PI3Kα activity inhibition (Kinase-Glo); assay type: biochemical; conditions: Table 1, graded; read-out: PI3Kα IC50
T2 construct: purchased Invitrogen PV4788
Experimental: Detecting the inhibition capability of the compound to PI3Kα and PI3Kδ activities with Kinase-Glo (purchased from Promege Company; Catalog No.: V3771). […] The reaction system also comprises substrates as PIP2 (4, 5-diphosphoinositide, purchased from Life Technologies Company) and ATP (triphosadenine, purchased from Sigma Company). The reaction buffer system comprises 50 mM HEPES (4-hydroxyethylpiperazine ethane sulfonic acid), 3 mM MgCl2, 1 mM EGTA (ethylene glycol bis(2-amino ethylether)quadrol), 100 mM NaCl, 0.03% CHAPS (3-[3-(cholamidopropyl)dimethylamino]-1-propanesulfonic acid), 2 mM DTT (dithiothreitol). The pH value of the reaction buffer is 7.5. […] Mixing the system evenly for incubation under ambient temperature (for 1 h in PI3Kα test and for 2 h in PI3Kδ test). After incubation, adding 10 μL Kinase-Glo which has been preheated to ambient temperature into each reaction well to terminate the reaction; shaking it in dark place for 15 min after it is mixed evenly, then measuring the fluorescence intensity with a microplate reader and analyzing the result data with the software GraphPad Prism.
as §1
Where, Y refers to the inhibition ratio (%) and X refers to the compound concentration.

[3] = Table 1, graded, read-out: HDAC1 IC50
[4] = read-out: inhibition value IC50 to the activity of HDAC1

T1 sequence (Q13547 whole entry, species assumed): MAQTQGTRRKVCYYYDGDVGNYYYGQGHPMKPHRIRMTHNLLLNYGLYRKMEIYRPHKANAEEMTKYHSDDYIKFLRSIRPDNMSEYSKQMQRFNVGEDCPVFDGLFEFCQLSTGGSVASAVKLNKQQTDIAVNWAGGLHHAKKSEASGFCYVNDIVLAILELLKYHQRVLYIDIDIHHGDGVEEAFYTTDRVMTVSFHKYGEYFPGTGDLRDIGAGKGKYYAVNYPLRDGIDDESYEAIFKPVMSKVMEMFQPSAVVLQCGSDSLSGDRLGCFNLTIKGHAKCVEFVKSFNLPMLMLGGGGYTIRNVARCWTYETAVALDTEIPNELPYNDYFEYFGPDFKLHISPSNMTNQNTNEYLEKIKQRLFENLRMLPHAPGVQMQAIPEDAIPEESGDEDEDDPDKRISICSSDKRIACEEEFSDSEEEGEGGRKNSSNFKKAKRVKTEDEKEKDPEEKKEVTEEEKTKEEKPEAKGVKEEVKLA
T2 sequence (P42336 whole entry, species assumed): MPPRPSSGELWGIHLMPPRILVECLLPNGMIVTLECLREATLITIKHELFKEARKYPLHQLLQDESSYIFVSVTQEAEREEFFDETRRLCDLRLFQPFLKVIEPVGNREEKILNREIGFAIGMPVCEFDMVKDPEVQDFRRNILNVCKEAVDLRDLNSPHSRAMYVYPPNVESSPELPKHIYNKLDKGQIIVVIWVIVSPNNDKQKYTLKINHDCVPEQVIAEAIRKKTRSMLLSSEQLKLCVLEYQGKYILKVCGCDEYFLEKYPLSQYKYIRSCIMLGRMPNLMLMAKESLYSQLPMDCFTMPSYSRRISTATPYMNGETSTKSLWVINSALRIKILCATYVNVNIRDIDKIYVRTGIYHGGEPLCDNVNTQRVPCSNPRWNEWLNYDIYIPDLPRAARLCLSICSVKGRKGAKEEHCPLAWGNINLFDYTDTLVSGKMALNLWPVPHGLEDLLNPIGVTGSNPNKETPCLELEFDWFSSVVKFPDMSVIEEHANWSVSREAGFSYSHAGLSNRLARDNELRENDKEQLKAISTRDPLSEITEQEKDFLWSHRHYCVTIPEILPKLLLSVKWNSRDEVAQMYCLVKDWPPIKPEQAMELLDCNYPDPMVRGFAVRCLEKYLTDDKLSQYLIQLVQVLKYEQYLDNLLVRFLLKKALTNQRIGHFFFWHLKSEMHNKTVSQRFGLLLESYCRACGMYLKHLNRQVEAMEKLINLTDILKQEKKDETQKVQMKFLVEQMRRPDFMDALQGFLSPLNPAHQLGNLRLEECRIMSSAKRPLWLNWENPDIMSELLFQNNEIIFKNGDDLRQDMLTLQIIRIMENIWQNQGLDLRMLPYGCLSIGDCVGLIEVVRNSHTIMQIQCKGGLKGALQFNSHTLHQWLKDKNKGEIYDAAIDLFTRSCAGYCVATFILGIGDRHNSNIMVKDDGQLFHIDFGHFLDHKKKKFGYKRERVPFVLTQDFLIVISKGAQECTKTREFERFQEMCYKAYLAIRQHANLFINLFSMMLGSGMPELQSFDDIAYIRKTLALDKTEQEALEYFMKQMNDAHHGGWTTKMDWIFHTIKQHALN
T2 sequence (P27986 whole entry partner, species assumed): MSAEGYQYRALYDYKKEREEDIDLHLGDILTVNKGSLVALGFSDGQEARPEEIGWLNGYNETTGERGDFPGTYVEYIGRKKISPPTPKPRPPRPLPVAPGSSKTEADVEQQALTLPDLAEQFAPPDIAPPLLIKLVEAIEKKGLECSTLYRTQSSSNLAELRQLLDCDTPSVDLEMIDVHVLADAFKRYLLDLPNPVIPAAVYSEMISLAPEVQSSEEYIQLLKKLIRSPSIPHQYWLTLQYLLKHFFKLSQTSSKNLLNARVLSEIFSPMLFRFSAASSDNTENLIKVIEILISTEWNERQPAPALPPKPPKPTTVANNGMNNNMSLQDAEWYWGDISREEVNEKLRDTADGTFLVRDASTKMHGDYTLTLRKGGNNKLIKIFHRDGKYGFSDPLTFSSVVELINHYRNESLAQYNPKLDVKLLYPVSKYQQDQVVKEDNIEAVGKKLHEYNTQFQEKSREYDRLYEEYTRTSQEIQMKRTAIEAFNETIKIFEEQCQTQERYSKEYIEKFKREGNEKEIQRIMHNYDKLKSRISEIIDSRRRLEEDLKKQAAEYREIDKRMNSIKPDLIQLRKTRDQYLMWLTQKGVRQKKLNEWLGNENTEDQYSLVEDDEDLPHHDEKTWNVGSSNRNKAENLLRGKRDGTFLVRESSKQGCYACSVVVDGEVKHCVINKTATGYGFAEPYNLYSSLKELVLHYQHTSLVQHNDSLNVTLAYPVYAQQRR

Compound | IC50 [1, 3] [nM] | IC50 [2] [nM] | IC50 [1, 4] [nM] | IC50 [1] [nM]
CN(Cc1nc2c(N3CCOCC3)nc(-c3cccc(NS(=O)(=O)CCCl)c3)nc2n1C)c1ncc(C(=O)NO)cn1 [CLJ-50, 2-(((2-(3-(2-chloroethylsulfonamide)phenyl)-9-methyl-6-morpholine-9H-purine-8-yl))methyl(methyl)amino)-N-hydroxyl pyrimidine-5-formamide] | – | > 10000 | – | < 100
CCCn1c(CN(C)c2ncc(C(=O)NO)cn2)nc2c(N3CCOCC3)nc(-c3ccc(N)cc3)nc21 [CLJ-45, N-hydroxy-2-(((2-(4-aminophenyl)-6-morpholino-9-propyl-9H-purine-8-yl)methyl)(methyl)amino)pyrimidine-5-formamide] | 1000 to 10000 | > 10000 | – | –
CCCCN(Cc1nc2c(N3CCOCC3)nc(-c3ccc(NC)cc3)nc2n1C)c1ncc(C(=O)NO)cn1 [CLJ-47, N-hydroxy-2-(((2-(4-methylaminophenyl)-9-methyl-6-morpholine-9H-purine-8-yl)methyl)(butyl)amino)pyrimidine-5-formamide] | 1000 to 10000 | > 10000 | – | –
CN(Cc1nc2c(N3CCOCC3)nc(-c3ccc(O)cc3)nc2n1C)c1ncc(C(=O)NO)cn1 [CLJ-28, 2-(((2-(4-hydroxyphenyl)-9-methyl-6-morpholine-9H-purine-8-yl))methyl(methyl)amino)-N-hydroxyl pyrimidine-5-formamide] | 100 to 1000 | > 10000 | – | –
CCCCn1c(CN(C)c2ncc(C(=O)NO)cn2)nc2c(N3CCOCC3)nc(-c3ccc(OC)cc3)nc21 [CLJ-33, N-hydroxy-2-(((2-(4-methoxyphenyl)-6-morpholino-9-butyl-9H-purine-8-yl)methyl)(methyl)amino)pyrimidine-5-formamide] | 100 to 1000 | > 10000 | – | –
CN(Cc1nc2c(N3CCOCC3)nc(-c3ccc(NC(=O)OC(C)(C)C)cc3)nc2n1C)c1ncc(C(=O)NO)cn1 [CLJ-52] | < 100 | > 10000 | – | –
COc1ccc(-c2nc(N3CCNCC3)c3nc(CN(C)c4ncc(C(=O)NO)cn4)n(C)c3n2)cc1 [CLJ-69, N-hydroxy-2-(((2-(4-methoxyphenyl)-9-methyl-6-(piperazine-1-yl)-9H-purine-8-yl)methyl)(methyl)amino)pyrimidine-5-formamide] | < 100 | > 10000 | – | –
CN(Cc1nc2c(N3CCOCC3)nc(-c3cccc(S(=O)(=O)NCO)c3)nc2n1C)c1ncc(C(=O)NO)cn1 [CLJ-59, 2-(((2-(3-(N-(hydroxymethyl)sulfonamide)phenyl)-9-methyl-6-morpholine-9H-purine-8-yl))methyl(methyl)amino)-N-hydroxyl pyrimidine-5-formamide] | < 100 | > 10000 | – | –
2-(((2-(4-((2-hydroxycaproyl)sulfydryl)phenyl)-9-methyl-6-morpholine-9H-purine-8-yl))methyl(methyl)amino)-N-hydroxyl pyrimidine-5-formamide [CLJ-42] | < 100 | > 10000 | – | –
CN(Cc1nc2c(N3CCOCC3)nc(-c3ccc(NS(=O)(=O)CCCCl)cc3)nc2n1C)c1ncc(C(=O)NO)cn1 [CLJ-51] | < 100 | > 10000 | – | –
CN(Cc1nc2c(N3CCOCC3)nc(-c3cccc(CO)c3)nc2n1C)c1ncc(C(=O)NO)cn1 [CLJ-40, 2-(((2-(3-(hydroxymethyl)phenyl)-9-methyl-6-morpholine-9H-purine-8-yl))methyl(methyl)amino)-N-hydroxyl pyrimidine-5-formamide] | < 100 | > 10000 | – | –
CC(C)COc1ccc(-c2nc(N3CCOCC3)c3nc(CN(C)c4ncc(C(=O)NO)cn4)n(C)c3n2)cc1 [CLJ-43, 2-(((2-(4-isobutoxyphenyl)-9-methyl-6-morpholine-9H-purine-8-yl))methyl(methyl)amino)-N-hydroxyl pyrimidine-5-formamide] | < 100 | > 10000 | – | –
CCCc1ccc(-c2nc(N3CCOCC3)c3nc(CN(C)c4ncc(C(=O)NO)cn4)n(C)c3n2)cc1 [CLJ-62, 2-(((2-(4-propylphenyl)-9-methyl-6-morpholine-9H-purine-8-yl))methyl(methyl)amino)-N-hydroxyl pyrimidine-5-formamide] | < 100 | > 10000 | – | –
CN(Cc1nc2c(N3CCOCC3)nc(-c3cccc(C(=O)NCCO)c3)nc2n1C)c1ncc(C(=O)NO)cn1 [CLJ-65, 2-(((2-(3-(N-(hydroxyethyl)acylamino)phenyl)-9-methyl-6-morpholine-9H-purine-8-yl))methyl(methyl)amino)-N-hydroxyl pyrimidine-5-formamide] | < 100 | > 10000 | – | –
CN(Cc1nc2c(N3CCOCC3)nc(-c3cccc(OCCO)c3)nc2n1C)c1ncc(C(=O)NO)cn1 [CLJ-41, 2-(((2-(3-(2-hydroxylethyoxyl)phenyl)-9-methyl-6-morpholine-9H-purine-8-yl))methyl(methyl)amino)-N-hydroxyl pyrimidine-5-formamide] | 100 to 1000 | 100 to 1000 | – | –
CN(Cc1nc2c(N3CCOCC3)nc(-c3ccccc3NS(C)(=O)=O)nc2n1C)c1ncc(C(=O)NO)cn1 [CLJ-53] | < 100 | > 10000 | – | –
CN(Cc1nc2c(N3CCOCC3)nc(-c3ccc(C(C)(C)C)cc3)nc2n1C)c1ncc(C(=O)NO)cn1 [CLJ-63] | < 100 | > 10000 | – | –

The next lines start with results.

IC50 [1, 3] [nM] | IC50 [2] [nM] | IC50 [1, 4] [nM] | Compound | IC50 [1] [nM]
< 100 | > 10000 | – | COc1ccc(-c2nc(N3CCOCC3)c3nc(CNc4ncc(C(=O)NO)cn4)n(C)c3n2)cc1 [CLJ-34, N-hydroxy-2-(((2-(4-methoxyphenyl)-9-methyl-6-morpholine-9H-purine-8-yl)methyl)amino)pyrimidine-5-formamide] | –
< 100 | > 10000 | – | CN(Cc1nc2c(N3CCOCC3)nc(-c3ccc(S(=O)(=O)NCCCCl)cc3)nc2n1C)c1ncc(C(=O)NO)cn1 [CLJ-58, 2-(((2-(4-(N-(3-chloropropyl)sulfonamide)phenyl)-9-methyl-6-morpholine-9H-purine-8-yl))methyl(methyl)amino)-N-hydroxyl pyrimidine-5-formamide] | –
< 100 | > 10000 | – | CN(Cc1nc2c(N3CCOCC3)nc(-c3cccc(C(=O)N4CCN(CO)CC4)c3)nc2n1C)c1ncc(C(=O)NO)cn1 [CLJ-66, 2-(((2-(3-(4-(hydroxymethyl)piperazine-1-carbonyl)phenyl)-9-methyl-6-morpholine-9H-purine-8-yl))methyl(methyl)amino)-N-hydroxyl pyrimidine-5-formamide] | –
< 100 | > 10000 | – | CN(Cc1nc2c(N3CCOCC3)nc(-c3cccc(C(N)=O)c3)nc2n1C)c1ncc(C(=O)NO)cn1 [CLJ-64, 2-(((2-(3-carbamoylphenyl)-9-methyl-6-morpholine-9H-purine-8-yl))methyl(methyl)amino)-N-hydroxyl pyrimidine-5-formamide] | –
< 100 | > 10000 | – | COc1ccc(-c2nc(N3CCN(CCO)CC3)c3nc(CN(C)c4ncc(C(=O)NO)cn4)n(C)c3n2)cc1 [CLJ-70, N-hydroxy-2-(((2-(4-methoxyphenyl)-9-methyl-6-(4-(2-hydroxyethylpiperazine)-1-yl)-9H-purine-8-yl)methyl)(methyl)amino)pyrimidine-5-formamide] | –
< 1 | > 10000 | < 1 | CN(C)c1ccc(-c2nc(N3CCOCC3)c3nc(CN(C)c4ncc(C(=O)NO)cn4)n(C)c3n2)cc1 [CLJ-46] | –
< 1 | > 10000 | < 1 | CN(Cc1nc2c(N3CCOCC3)nc(-c3ccc(CN4CCOCC4)cc3)nc2n1C)c1ncc(C(=O)NO)cn1 [CLJ-67] | –
< 1 | > 10000 | < 1 | CN(Cc1nc2c(N3CCOCC3)nc(-c3ccco3)nc2n1C)c1ncc(C(=O)NO)cn1 [CLJ-26, 2-(((2-(2-furyl)-9-methyl-6-morpholine-9H-purine-8-yl))methyl(methyl)amino)-N-hydroxyl pyrimidine-5-formamide] | –
< 1 | > 10000 | < 1 | CN(Cc1nc2c(N3CCOCC3)nc(-c3ccc4c(c3)OCCO4)nc2n1C)c1ncc(C(=O)NO)cn1 [CLJ-37, 2-(((2-(benzo[d][1.4]dioxyheterocyclic hexylene-6-yl)-9-methyl-6-morpholine-9H-purine-8-yl))methyl(methyl)amino)-N-hydroxyl pyrimidine-5-formamide] | –
